Assays:
D(4) dopamine receptor = target: T1, D(4) dopamine receptor (Homo sapiens, UniProt P21917); test: DRUGMATRIX: Dopamine D4.2 radioligand binding (ligand: [3H] Spiperone); format: cell membranes, CHO-K1, Membrane; details: cho-k1; Not Active = under 50% inhibition at 10 µM
T1 sequence (P21917 whole entry): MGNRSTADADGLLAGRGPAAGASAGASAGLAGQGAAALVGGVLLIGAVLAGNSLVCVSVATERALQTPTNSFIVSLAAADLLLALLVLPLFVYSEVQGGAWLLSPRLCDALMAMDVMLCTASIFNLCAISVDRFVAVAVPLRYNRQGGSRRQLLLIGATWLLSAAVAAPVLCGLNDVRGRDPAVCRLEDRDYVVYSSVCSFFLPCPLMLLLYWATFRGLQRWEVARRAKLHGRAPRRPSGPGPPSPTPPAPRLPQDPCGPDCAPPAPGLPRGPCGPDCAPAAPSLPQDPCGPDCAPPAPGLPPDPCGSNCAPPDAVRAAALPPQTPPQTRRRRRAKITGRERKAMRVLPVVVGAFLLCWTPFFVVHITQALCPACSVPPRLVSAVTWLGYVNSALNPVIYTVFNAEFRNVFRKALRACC

[1] = DRUGMATRIX: Phorbol Ester radioligand binding (ligand: [3H] PDBu); format: cell membranes, Mus musculus, ICR, Brain, Membrane; details: Not Active = under 50% inhibition at 10 µM
Endothelin-1 receptor = target: T2, Endothelin-1 receptor (Homo sapiens, UniProt P25101); format: cell membranes, CHO-K1, Membrane; details: cho-k1; note: in other assays of this panel Not Active means under 50% inhibition at 10 µM
T2 sequence (P25101 whole entry): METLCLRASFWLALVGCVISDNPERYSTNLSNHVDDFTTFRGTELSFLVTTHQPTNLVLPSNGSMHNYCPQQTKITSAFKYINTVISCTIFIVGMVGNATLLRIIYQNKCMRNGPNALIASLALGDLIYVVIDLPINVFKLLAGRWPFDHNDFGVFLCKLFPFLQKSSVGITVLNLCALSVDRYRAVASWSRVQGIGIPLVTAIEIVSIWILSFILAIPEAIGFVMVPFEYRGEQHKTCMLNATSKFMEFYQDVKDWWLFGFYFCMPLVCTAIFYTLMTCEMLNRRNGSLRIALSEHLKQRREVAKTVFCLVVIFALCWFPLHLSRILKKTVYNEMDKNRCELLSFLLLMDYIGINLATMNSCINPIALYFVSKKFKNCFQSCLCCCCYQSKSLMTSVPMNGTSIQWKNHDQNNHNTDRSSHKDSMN

[2] = target: T3, 5-hydroxytryptamine receptor 2C (Homo sapiens, UniProt P28335); test: DRUGMATRIX: Serotonin (5-Hydroxytryptamine) 5-HT2C radioligand binding (ligand: [3H] Mesulergine); format: cell membranes, CHO-K1, Membrane; details: Not Active = under 50% inhibition at 10 µM
T3 sequence (P28335 whole entry): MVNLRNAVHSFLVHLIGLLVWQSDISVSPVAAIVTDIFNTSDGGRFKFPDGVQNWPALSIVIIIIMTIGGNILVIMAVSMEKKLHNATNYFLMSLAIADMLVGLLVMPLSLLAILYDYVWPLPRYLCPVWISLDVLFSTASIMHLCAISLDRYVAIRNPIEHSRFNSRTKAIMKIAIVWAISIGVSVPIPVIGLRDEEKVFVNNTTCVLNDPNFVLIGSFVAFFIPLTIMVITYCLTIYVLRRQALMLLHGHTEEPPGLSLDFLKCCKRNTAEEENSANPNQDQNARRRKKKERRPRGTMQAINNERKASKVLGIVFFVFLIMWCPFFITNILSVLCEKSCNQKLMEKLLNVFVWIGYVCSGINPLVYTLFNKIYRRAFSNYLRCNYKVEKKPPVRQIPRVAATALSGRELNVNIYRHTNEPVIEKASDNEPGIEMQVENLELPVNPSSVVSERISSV

[3] = target: C-C chemokine receptor type 5 (Homo sapiens, UniProt P51681); format: cell membranes, Membrane; details: hek293; note: in other assays of this panel Not Active means under 50% inhibition at 10 µM
[4] = DRUGMATRIX: Sigma2 radioligand binding (ligand: [3H] Ifenprodil); format: cell membranes, Rattus norvegicus, Wistar, Brain, Membrane; details: Not Active = under 50% inhibition at 10 µM
Cathepsin G = target: T4, Cathepsin G (Homo sapiens, UniProt P08311); format: tissue-based; details: neutrophil;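 note: inhibition of Cathepsin G enzyme activity, tested on an AMC-conjugated peptide substrate; in other assays of this panel Not Active means under 50% inhibition at 10 µM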
T4 sequence (P08311 whole entry): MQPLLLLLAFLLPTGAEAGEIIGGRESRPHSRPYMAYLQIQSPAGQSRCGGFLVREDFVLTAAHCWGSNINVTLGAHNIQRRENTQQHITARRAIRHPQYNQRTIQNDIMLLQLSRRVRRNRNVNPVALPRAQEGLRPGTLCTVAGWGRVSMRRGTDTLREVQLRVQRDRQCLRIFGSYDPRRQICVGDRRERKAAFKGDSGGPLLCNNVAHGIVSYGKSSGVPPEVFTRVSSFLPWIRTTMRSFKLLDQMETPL

Chain of C-C chemokine receptor type 5 (P51681 whole entry): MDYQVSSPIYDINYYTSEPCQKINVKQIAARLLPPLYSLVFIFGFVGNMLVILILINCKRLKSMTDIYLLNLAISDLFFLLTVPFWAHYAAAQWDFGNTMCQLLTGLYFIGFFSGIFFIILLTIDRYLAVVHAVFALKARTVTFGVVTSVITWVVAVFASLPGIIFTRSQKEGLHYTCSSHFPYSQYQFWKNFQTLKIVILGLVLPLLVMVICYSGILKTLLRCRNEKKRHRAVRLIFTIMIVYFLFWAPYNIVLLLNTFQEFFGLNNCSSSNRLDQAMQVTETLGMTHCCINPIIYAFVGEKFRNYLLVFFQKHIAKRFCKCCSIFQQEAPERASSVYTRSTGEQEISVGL

Compound | IC50 (D(4) dopamine receptor) | IC50 [1] | Ki [1] | IC50 (Endothelin-1 receptor) | IC50 ([2]; cho-k1) | IC50 [3] | IC50 [4] | Ki [4] | IC50 (Cathepsin G) | IC50 ([2]; read-out: IC50) | Ki ([2]; read-out: Ki) | Ki (D(4) dopamine receptor) | Ki (Endothelin-1 receptor) | Ki ([2]; cho-k1) | Ki [3] | Ki (Cathepsin G)
C[C@]12CC[C@H]3[C@@H](CCC4=CC(=O)CC[C@@]43C)[C@@H]1CC[C@@H]2O [TESTOSTERONE] | Not Active | Not Active | Not Active | Not Active | Not Active | Not Active | Not Active | Not Active | Not Active | – | – | – | – | – | – | –
CC(C)(C)NC[C@H](O)COc1nsnc1N1CCOCC1 [TIMOLOL] | Not Active | Not Active | Not Active | Not Active | Not Active | Not Active | Not Active | Not Active | Not Active | – | – | – | – | – | – | –
CCS(=O)(=O)CCn1c([N+](=O)[O-])cnc1C [TINIDAZOLE] | Not Active | Not Active | Not Active | Not Active | Not Active | Not Active | Not Active | Not Active | Not Active | – | – | – | – | – | – | –
C[C@@H]1C[C@H]2[C@@H]3CCC4=CC(=O)C=C[C@]4(C)C3=CC[C@]2(C)[C@H]1C(=O)CN1CCN(c2cc(N3CCCC3)nc(N3CCCC3)n2)CC1 [TIRILAZAD] | Not Active | Not Active | Not Active | Not Active | – | Not Active | Not Active | Not Active | Not Active | 718 nM | 376 nM | – | – | – | – | –
NC[C@H]1O[C@H](O[C@H]2[C@H](O)[C@@H](O[C@H]3O[C@H](CO)[C@@H](O)[C@H](N)[C@H]3O)[C@H](N)C[C@@H]2N)[C@H](N)C[C@@H]1O [TOBRAMYCIN] | Not Active | Not Active | Not Active | Not Active | Not Active | Not Active | Not Active | Not Active | Not Active | – | – | – | – | – | – | –
O=C(O)C(Cl)(Cl)Cl [TRICHLOROACETIC ACID] | Not Active | Not Active | Not Active | Not Active | Not Active | Not Active | Not Active | Not Active | Not Active | – | – | – | – | – | – | –
COc1ccc(CN2CCNCC2)c(OC)c1OC [TRIMETAZIDINE] | Not Active | Not Active | Not Active | Not Active | Not Active | Not Active | Not Active | Not Active | Not Active | – | – | – | – | – | – | –
CC(=O)O[C@H]1C[C@@H]2CC[C@@H]3[C@H](CC[C@@]4(C)[C@H]3C[C@H]([N+]3(C)CCCCC3)[C@@H]4OC(C)=O)[C@@]2(C)C[C@@H]1N1CCCCC1.[Br-] [VECURONIUM BROMIDE] | Not Active | Not Active | Not Active | Not Active | Not Active | Not Active | Not Active | Not Active | Not Active | – | – | – | – | – | – | –
COc1cc(C(=O)NS(=O)(=O)c2ccccc2C)ccc1Cc1cn(C)c2ccc(NC(=O)OC3CCCC3)cc12 [ZAFIRLUKAST] | Not Active | Not Active | Not Active | Not Active | Not Active | Not Active | Not Active | Not Active | Not Active | – | – | – | – | – | – | –
Cc1cn([C@H]2C[C@H](N=[N+]=[N-])[C@@H](CO)O2)c(=O)[nH]c1=O [ZIDOVUDINE] | Not Active | Not Active | Not Active | Not Active | Not Active | Not Active | Not Active | Not Active | Not Active | – | – | – | – | – | – | –
STANNOUS FLUORIDE | Not Active | Not Active | Not Active | Not Active | Not Active | Not Active | Not Active | Not Active | Not Active | – | – | Not Active | Not Active | Not Active | Not Active | Not Active
THIMEROSAL | Not Active | Not Active | Not Active | Not Active | Not Active | Not Active | Not Active | Not Active | Not Active | – | – | Not Active | Not Active | Not Active | Not Active | Not Active

Source: ChEMBL document CHEMBL1909046, “DrugMatrix in vitro pharmacology data”
